Data published in PMC7018972, “Novel and selective inactivators of Triosephosphate isomerase with anti-trematode activity” (Scientific Reports, 2020).

molecular target: Fasciola hepatica TIM (FhTIM) (Fasciola hepatica, UniProt S4UI50); assay: Inhibition of recombinant FhTIM, coupled enzyme assay; type: biochemical; details: Figure 1, ranges of inhibitory activity; read-out: IC50 range
Protocol: Expression and purification of proteins: FhTIM, RabbitTIM and HsTIM were expressed in Escherichia coli and purified as described in the literature[31],[37]. […] Before use, extensive dialysis against 100 mM triethanolamine/10 mM EDTA (pH 7.4) was performed. […] Enzymatic activity was determined following the conversion of glyceraldehydes-3-phosphate into dihydroxyacetone phosphate in a coupled enzyme assay. The decrease in absorbance at 340 nm was followed in a multiplate reader VarioskanTM Flash Multimode Reader (Thermo ScientificTM, Waltham, MA, USA) at 38 °C. The reaction mixture (1 mL, pH 7.4) contained 100 mM triethanolamine, 10 mM EDTA, 0.2 mM NADH, 1 mM glyceraldehydes-3-phosphate and 0.9 units of α-glycerol phosphate dehydrogenase. The reaction was initiated by the addition of 5 ng/mL of the TIM of interest. For the inhibition studies, TIM was incubated at a concentration of 5 mg/mL in a buffer containing 100 mM triethanolamine, 10 mM EDTA, pH 7.4 and 10% of DMSO at 37 °C for 1 h. The mixture also contained the compounds, dissolved in DMSO, at the indicated concentrations. After 1 h, 10 µL were withdrawn and added to a final volume of 100 µL of the reaction mixture for the activity assay. The inhibition assay was performed in a 96-well microplate. […] The experiments were performed in triplicate in two independent experiments.

Chain of Fasciola hepatica TIM (FhTIM) (S4UI50 entry or part of it): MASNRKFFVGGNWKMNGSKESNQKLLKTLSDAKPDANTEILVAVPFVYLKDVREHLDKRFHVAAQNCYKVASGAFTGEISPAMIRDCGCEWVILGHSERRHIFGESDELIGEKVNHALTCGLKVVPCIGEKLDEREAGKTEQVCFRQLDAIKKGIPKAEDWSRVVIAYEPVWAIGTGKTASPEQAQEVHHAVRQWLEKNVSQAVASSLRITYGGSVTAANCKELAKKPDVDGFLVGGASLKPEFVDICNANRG

IC50	Structure (SMILES)
< 50 µM	O=C1C(=Cc2ccc([N+](=O)[O-])cc2)C(=O)N(Cc2ccccc2)S(=O)(=O)N1Cc1ccccc1 [Compound 111]

same assay, conditions: Table 1S, screening of 340 compounds in FhTIM; table head prints no unit, µM per b8/b9; read-out: IC50

IC50	Structure (SMILES)
> 100 µM	CN(CC=Cc1ccccc1)CCCCCn1nc(OCc2ccccc2)c2cc([N+](=O)[O-])ccc21 [Compound 507]
> 100 µM	C=CCn1c(C(=O)O)csc1=NN=Cc1ccc(S(=O)(=O)O)o1 [Compound 913]
> 100 µM	COc1ccc(CN2c3nc(-c4ccccc4OC)[nH]c3C(N)=NS2(=O)=O)cc1 [Compound 707]
> 100 µM	O=C1C(=C2Nc3ccccc3C2=O)Nc2ccccc21 [Compound 879]
> 100 µM	C=CCn1c(-c2ccccc2)csc1=NN=Cc1ccco1 [Compound 1109]
> 100 µM	COc1ccc(CNCC(=O)O)cc1 [Compound 659]
< 25 µM	O=C1C(=Cc2ccc([N+](=O)[O-])cc2)C(=O)N(Cc2ccccc2)S(=O)(=O)N1Cc1ccccc1 [Compound 111]
> 100 µM	N#Cc1c2ccccc2[n+]([O-])n1CCCl [Compound 483]
> 100 µM	C=CCn1c(C)csc1=NN=CC=Cc1ccc([N+](=O)[O-])s1 [Compound 259]
> 100 µM	O=S(=O)(NC1CCCCC1)NC1CCCCC1 [Compound 118]
> 100 µM	O=C(O)c1ccc(C=CCN2C(=O)c3ccccc3C2=O)cc1 (mixture of isomers) [Compound 617]
> 100 µM	C=CCN1C(=O)CSC1=NN=CC=Cc1cccs1 [Compound 1138]
> 100 µM	O=Cc1ccc2no[n+]([O-])c2c1 [Compound 38]
100 µM	NC1=NS(=O)(=O)N=C(N)C1 [Compound 126]
> 100 µM	CC(C=CC(=O)C=CC(C)=Cc1ccco1)=Cc1ccco1 [Compound 809]
> 100 µM	O=C1C(=CC=Cc2cccs2)CCCC1=CC=Cc1cccs1 [Compound 1245]
> 100 µM	C=CCn1c(C(=O)CN2CCN(CC=Cc3ccccc3)CC2)csc1=NN=CC=Cc1ccco1 [Compound 1112]
> 100 µM	S=C(NN=C/C=C/c1ccco1)Nc1ccccc1 [Compound 277]
> 100 µM	O=[N+]([O-])c1c(Cl)cc2c(no[n+]2[O-])c1N1CCN(c2c([N+](=O)[O-])c(Cl)cc3c2no[n+]3[O-])CC1 [Compound 704]
> 100 µM	CCOC(=O)c1nc2ccc([N+](=O)[O-])cc2n1O [Compound 546]
> 100 µM	N#Cc1c2ccccc2[n+]([O-])n1-c1ccc2ccccc2c1 [Compound 202]

IC50	Structure (SMILES)
> 100 µM	COc1nn(CCOCCN(C)C)c2ccc([N+](=O)[O-])cc12 [Compound 474]
> 100 µM	C(=Cc1ccccc1)CCN1CCN(CCC=Cc2ccccc2)CC1 [Compound 1119]
> 100 µM	N#Cc1c2ccccc2[n+]([O-])n1-c1ccc(Cl)cc1 [Compound 480]
> 100 µM	C=CCN1C(=O)CSC1=NN=Cc1cccs1 [Compound 273]
> 100 µM	O=C(CBr)C(=O)CSC(=NN=Cc1ccccc1)Nc1ccccc1 [Compound 777]
> 100 µM	O=C1CSC(=NN=Cc2cccs2)N1c1ccccc1 [Compound 293]
> 100 µM	Cc1ccc2c(c1)nc(-c1ccc(N(C)C)cc1)n2CCc1ccccc1 [Compound 696]
> 100 µM	C=CCn1c(-c2ccc([N+](=O)[O-])cc2)csc1=NN=Cc1ccc([N+](=O)[O-])s1 [Compound 146]
> 100 µM	C=CCn1c(-c2ccc(OC)cc2)csc1=NN=CC=Cc1cccs1 [Compound 1133]
> 100 µM	O=[N+]([O-])c1ccc2c(c1)c(O)nn2CCOCCN1CCSCC1 [Compound 642]
100 µM	Cc1nnc[n+]([O-])c1/C=C/c1ccc([N+](=O)[O-])s1 [Compound 361]
> 100 µM	CC(=O)N(C1=NN(C(C)=O)C(c2ccc([N+](=O)[O-])s2)S1)c1ccccc1 (centres unmarked) [Compound 130]
> 100 µM	Cc1nnc[n+]([O-])c1/C=C/c1ccc(Cl)cc1 [Compound 211]
> 100 µM	COCCNC(=O)/C=C/c1ccc([N+](=O)[O-])o1 [Compound 60]
> 100 µM	O=C(/C=C/c1ccco1)N1CCN(C/C=C/c2ccccc2)CC1 [Compound 50]
> 100 µM	C=CCn1c(C(=O)CN2CCN(c3ccccc3)CC2)csc1=NN=CC=Cc1ccco1 [Compound 1099]
> 100 µM	C=CCNc1nnc(-c2ccc([N+](=O)[O-])s2)s1 [Compound 292]
> 100 µM	CC12CCC(O)CC1=CCC1C2CCC2(C)C(C(=O)C=CC=Cc3ccccc3)CCC12 (centres unmarked) [Compound 1279]
> 100 µM	O=c1cc(-c2ccccc2)oc2ccccc12 [Compound 148]
> 100 µM	O=C1CCCC2=C1C(c1ccc(C(=O)O)cc1)c1ccc3ccccc3c1N2 (centres unmarked) [Compound 698]
50 to 100 µM	O=C1C(=CC=Cc2ccccc2)CCC1=CC=Cc1ccccc1 [Compound 1246]

IC50	Structure (SMILES)
> 100 µM	C=CCn1c(-c2ccccc2)csc1=NN=Cc1ccc([N+](=O)[O-])s1 [Compound 147]
> 100 µM	O=C(NN=Cc1ccccc1O)c1ccc(Cl)cc1 [Compound 1249]
> 100 µM	O=[N+]([O-])c1ccc(C=NN=c2[nH]c(-c3ccc(Cl)cc3)cs2)s1 [Compound 267]
> 100 µM	CC(=NNC(N)=O)c1cccc(C(C)=NNC(N)=O)n1 [Compound 701]
> 100 µM	N#Cc1c2ccccc2[n+]([O-])n1CCC=Cc1ccc(Cl)cc1 [Compound 501]
> 100 µM	COc1nn(CCOCCN(C)CC=Cc2ccccc2)c2ccc([N+](=O)[O-])cc12 [Compound 504]
> 100 µM	O=C(C(O)c1ccccc1)C(O)c1ccccc1 (centres unmarked) [Compound 1083]
> 100 µM	C=CCn1c(-c2csc(=NN=CC=Cc3ccccc3)n2-c2ccccc2)csc1=NN=CC=Cc1ccco1 [Compound 791]
> 100 µM	Nc1ccc2c(c1)[n+]([O-])c1cc(Cl)ccc1[n+]2[O-] [Compound 184]
100 µM	O=C(/C=C/c1ccco1)c1ccccc1O [Compound 881]
> 100 µM	C=CCn1c(C)csc1=NN=CC=Cc1ccccc1 [Compound 1135]
> 100 µM	C=CCN(C(C)=O)C1=NNC(c2cccs2)S1 (centres unmarked) [Compound 286]
50 to 100 µM	NC(N)=N/N=C/c1ccc(O)cc1 [Compound 675]
> 100 µM	O=C(/C=C/c1ccc([N+](=O)[O-])o1)N1CCN(C/C=C/c2ccccc2)CC1 [Compound 51]
> 100 µM	Clc1ccc(-c2csc(NN=CC=Cc3ccco3)n2)cc1 [Compound 901]
> 100 µM	CCCCNS(=O)(=O)NCCCC [Compound 123]
> 100 µM	NNC(=O)c1ccccn1 [Compound 717]
> 100 µM	ON=Cc1ccc(Br)cc1 [Compound 1107]
> 100 µM	Cc1c(C=NNC(N)=S)no[n+]1[O-] [Compound 1283]
> 100 µM	O=[N+]([O-])c1ccc2c(c1)c(O)nn2CCOCCN1CCCCC1 [Compound 459]
> 100 µM	[O-][n+]1onc2ccc(C=Cc3ccc4nonc4c3)cc21 [Compound 12]

IC50	Structure (SMILES)
> 100 µM	C=CCn1c(-c2csc(=NN=Cc3ccccc3)n2-c2ccccc2)csc1=NN=CC=Cc1ccco1 [Compound 782]
> 100 µM	C=CCN1C(=O)CSC1=NN=Cc1ccc([N+](=O)[O-])s1 [Compound 129]
> 100 µM	NNC(=O)c1ccncc1 [Compound 1120]
> 100 µM	CCCCNCCCCCn1nc(OC)c2cc([N+](=O)[O-])ccc21 [Compound 643]
> 100 µM	Cc1ccc(C=CC=NN2CCN(CC=Cc3ccccc3)CC2)o1 [Compound 903]
> 100 µM	C=CCn1c(-c2csc(=NN=Cc3ccc(S(=O)(=O)O)o3)n2-c2ccccc2)csc1=NN=CC=Cc1ccco1 [Compound 785]
> 100 µM	CCOC(=O)c1n(Cc2ccc(N(C)C)cc2)c2ccc([N+](=O)[O-])cc2[n+]1[O-] [Compound 553]
> 100 µM	O=[N+]([O-])c1ccc2c(c1)c(OCc1ccccc1)nn2CCOCCBr [Compound 516]
> 100 µM	O=[N+]([O-])c1ccc(C=CC=NNC(=S)Nc2ccccc2)o1 [Compound 54]
> 100 µM	C=CCNC(=S)NN=Cc1cncc(Br)c1 [Compound 307]
> 100 µM	Cc1c(C=Cc2ccc(N(C)C)cc2)[n+]([O-])cn[n+]1[O-] [Compound 219]
> 100 µM	Cc1ccc2c(c1)=[N+]([O-])C(C)(C)[N+]=2[O-] [Compound 109]
> 100 µM	N#CC(C#N)=CC=Cc1ccco1 [Compound 579]
> 100 µM	Clc1ccc(-c2csc(N=CC=Cc3ccco3)n2)cc1 [Compound 910]
50 to 100 µM	C=CCn1c(C)csc1=NN=Cc1ccc([N+](=O)[O-])s1 [Compound 143]
> 100 µM	O=C1CC(=O)N(Cc2ccccc2)S(=O)(=O)N1Cc1ccccc1 [Compound 358]
> 100 µM	Cc1c(C=NNC(N)=O)no[n+]1[O-] [Compound 159]
> 100 µM	Cc1ccc(/C=C/C=C/C(=O)/C=C/C=C/c2ccc(C)o2)o1 [Compound 1108]
50 to 100 µM	C=CCn1c(C)csc1=NN=Cc1cccs1 [Compound 274]
> 100 µM	CN1CC(=CC=Cc2cccs2)C(=O)C(=CC=Cc2cccs2)C1 [Compound 1285]
> 100 µM	S=C(NCc1ccccc1)NCc1ccccc1 [Compound 1085]

Structure (SMILES)	IC50
[O-][n+]1onc2ccccc21 [Compound 1197]	> 100 µM
